Test results reported in patent US12616706B2, “Compositions and methods of use comprising substances with neural plasticity actions administered at non-psychedelic/psychotomimetic dosages and formulations” (Arbormentis LLC, priority 2019, dated 2026).
Read-outs that look alike come from different tables or passages of the source.

Assays:
PSD95 = PSD95 protein expression in lateral cortex (Western blot); assay type: in vivo, mouse; settings: not significant
Experimental: (§1) Mice were euthanized by cervical dislocation. Immediately after the sample, fresh tissues were cut isolating 4 brain regions (cerebellum, lateral cortex, olfactory bulb, and the remaining brain), quickly collected and put in cryovials in liquid nitrogen and then kept at −80° C.
(§2) Brain tissues were lysed in RIPA lysis buffer (Invitrogen) and 1% (v/v) protease and phosphatase inhibitor cocktail (Sigma). Proteins were extracted by centrifugation at 14000 rpm at 4° C. for 30 minutes. Bicinchoninic Acid Assay (BCA) kit (1113 catalog #23225 Thermo-Scientific) was used to determine the protein concentration following the manufacturer's instructions. Western blot analyses to determine NMDAR 1 (primary antibody: Abcam, ab68144), PSD95 (Bioss, bs-0179R-TR), p70 (Bioss, bs-3498R-TR) and synapsin 1 (Bioss, bs-3501 R-TR) protein expression were performed using 30 μg per lane of nuclear or lateral cortex lysates. SDS-PAGE was performed on 8% polyacrylamide gels in reducing-denaturing condition and proteins were transferred to a 0.45 μm nitrocellulose membrane (BioRad Laboratories). Signal intensity of immunoreactive bands was analyzed by the Quantity One software (Bio-Rad Laboratories S.r.l.) and was normalized to that of the loading control GAPDH.

NMDAR1 = NMDAR1 protein expression in lateral cortex (Western blot); assay type: in vivo, mouse; settings: 0.05 mg/kg daily
Experimental: as §1, §2

[1] = Body and liver weight at sacrifice, mice; assay type: in vivo, mouse; settings: 0.05 mg/kg daily
Experimental: (§3) Mice were fed with standard diet and fructose (30% w/v in drinking water) was added to their diet 4 days before randomization.

c57BL/6 male mice [2] = assay: Locomotion Activity Test (LMA), mice; assay type: in vivo, mouse; settings: chronic (14 day) low dose 0.05 mg/Kg
Experimental: In order to ascertain whether the chronic administration of low dose psilocin-carbamate alters behavior in tested mice, the present inventors performed the Locomotion Activity Test (LMA), the Novelty Suppressed Feeding (NSF) test and the olfactory habitation/dishabituation test before and after the psilocin-carbamate treatment.
(§4) LMA has the aim of assessing spontaneous locomotor activity in laboratory animals. This test is performed in a gray arena (open field) exposed to light of regulated intensity (24 and 30 lux), avoiding light-shadow zones within the perimeter in which the experiment takes place. Along the base of the open field, 4 standard sized squares have been drawn, clearly visible even in the dark and large enough to allow the animal to remain inside them in all its length. The LMA test has been preceded by one hour of habituation, at the end of which the rat was inserted inside the open field, in one of the previously designed squares. The movements and behaviors in reaction to the environment were then recorded for 10 minutes.
Three fundamental aspects were assessed: 1. the number of crossings, i.e., the number of crossings made by the animal from one square to another, passing the line defining it with both legs. […]

synapsin 1 = assay: Synapsin 1 protein expression in lateral cortex (Western blot); assay type: in vivo, mouse; settings: adult mice; not significant
Experimental: as §1, §2

NMDAR2A = NMDAR2A protein expression in ARPE-19 cells (immunofluorescence); assay type: cell-based; settings: chronic treatment with psilocin carbamate for 96 hours
Experimental: (§5) First, the present inventors assessed the expression of three NMDAR subunits (NMDAR1, NMDAR2A, NMDAR2B) and two 5-HT2 subtypes (5-HT2A, 5-HT2C) by immunofluorescence coupled to confocal microscopy. 7,500 cells/well were plated in a 24-well plate on sterile glass coverslips. The next day, the immunofluorescence analysis was performed. The following primary antibodies were used: anti-NMDAR1A (Abcam, ab68144), NMDAR2A (Bioss, bs-3507R-TR), NMDAR2B (Bioss, bs-0222R-TR), 5-HT2A (Bioss, bs-12049R), 5-HT2C (Bioss, 2959R), and the secondary antibody goat anti-rabbit IgG (GeneTex, GTX213110-04). The images of the immunostained cells were acquired by means of a confocal microscope Zeiss LSM 800, using a 63× magnification and can be seen in FIGS. 9A-9E. ImageJ software was used to quantify the intensity of the fluorescent signal.
(§6) 7,500 cells/well were plated in a 24-well plate on sterile glass coverslips. […] After 6 days an immunofluorescence analysis coupled to confocal microscopy was performed with the primary and secondary antibodies described above.

c57BL/6 male mice [3] = assay: Toxicity and tolerability observation, high fructose mice; assay type: in vivo, mouse; settings: young
Experimental: as §3
During the experiment, the animals were carefully monitored every day for a period not exceeding the maximum experimental endpoints. Access to water (30% w/v fructose) and food ad libitum was allowed. No obvious clinical symptoms were observed during the experimental period.

NMDAR2B = NMDAR2B protein expression in ARPE-19 cells (immunofluorescence); assay type: cell-based; settings: chronic treatment with psilocin carbamate for 96 hours
Experimental: as §5, §6

p70 = p70 protein expression in lateral cortex (Western blot); assay type: in vivo, mouse; settings: not detected in adult mice
Experimental: as §1, §2

[4] = Blood glucose after 2-hours fasting, mice; assay type: in vivo, mouse; settings: 0.05 mg/kg daily
Experimental: as §3
Before sacrifice, the present inventors measured the blood glucose concentration of the mice after a 2-hours fasting.

Western Diet fed rats [5] = assay: Liver histology (hematoxylin-eosin), hepatic steatosis; settings: WD rats, 0.05 mg/kg 15 days; median (range in next column); WD alone 15
[6] = set-up: AUC: unit not given beside the values; settings: cited from earlier work
Western Diet fed rats [7] = assay: Locomotion Activity Test (LMA), WD rats; assay type: in vivo, rat; settings: chronic (15 day) low dose 0.05 mg/Kg
Experimental: as §4, with “In order to ascertain whether the chronic administration of low dose psilocybin alters behavior in WD fed rats, the present inventors performed the Locomotion Activity Test (LMA) before and after the psilocybin treatment (see FIGS. 7A-7C). This test has” for “LMA has”
In the LMA test, three fundamental aspects were assessed: 1. the number of crossings, i.e., the number of crossings made by the animal from one square to another, passing the line defining it with both legs. This value gives an indication of the distance traveled by the animal during the test and of its locomotor activity; 2. the number of rearings, i.e, the number of times the animal lifts up on the two posterior legs. […]

[8] = psilocybin 10, 20, 30 mg; cited from earlier work
[9] = system: Ki67 positive cells in the subventricular zone; assay: Neurogenesis in SVZ, Ki67 positive cells; assay type: in vivo, rat; settings: WD rats, 0.05 mg/Kg gastric gavage 15 days; WD 2722±225, SD 4601±17
Experimental: Methods: To perform immunohistochemistry, rats were euthanized and then perfused with 0.9% saline followed by 4% paraformaldehyde (PFA) in 1× phosphate saline buffer (PBS) (rats n tot=8, n=2 for each condition). Rats brains were promptly dissected and then post-fixed in 4% PFA for 48 hours. Brains were embedded in 2.5% agarose (Sigma-Aldrich) and then sectioned in sagittal sections (40 μm thick) at the vibratome (Vibratome VT1000S, Leica). Sagittal brain sections including the subventricular zone, were treated with a blocking solution of 10% normal goat serum (Jackson ImmunoResearch) in 1×PBS for 1 hour and then stained with rabbit anti-Ki67 monoclonal antibody (Abcam, AB 16667) (1:200) overnight. […] Brain sections were mounted with Aqua-Poly/Mount (Polysciences). Images of the sagittal sections containing the subventricular zone were acquired at the confocal microscope (Zeiss LSM 700) equipped with an EC Plan-Neofluar 20×/0.50 M27 objective (Zeiss). Ki67 positive cells were counted along the lateral wall of the lateral ventricles in rat brain sagittal sections, using ImageJ software (RRID: nif-000030467).

CC[C@H](C)[C@H](NC(=O)Oc1cccc2[nH]cc(CCN(C)C)c12)C(=O)O [psilocin-carbamate]
PSD95 protein expression, lateral cortex (PSD95; adult mice, tendency): decrease
PSD95 protein expression, lateral cortex (PSD95; young mice): tended to increase
NMDAR1 protein expression, lateral cortex (NMDAR1; adult mice): tended to decrease
NMDAR1 protein expression, lateral cortex (NMDAR1; young and old mice): tended to increase
Liver weight at sacrifice ([1]; adult mice): decrease
Body weight at sacrifice ([1]; adult mice, p<0.05): decrease
Body and liver weight ([1]; young mice): no effect
Psychedelic behavioral effects (c57BL/6 male mice [2]): no evidence of psychedelic behavioral effects
Synapsin 1 protein expression, lateral cortex (synapsin 1): tended to increase
NMDAR2A expression (NMDAR2A): reduction
Safety and tolerability (c57BL/6 male mice [3]; 0.05 mg/kg daily for 14 days, adult and old mice): safe and well-tolerated
Signs of toxicity and mortality (c57BL/6 male mice [3]; adult, old mice, 0.05 mg/kg gastric gavage, 14 days): No signs of toxicity and no mortality
NMDAR2B expression (NMDAR2B): reduction
p70 protein expression, lateral cortex (p70): no significant differences
Blood glucose control ([4]; mice): no effect
Blood glucose concentration ([4]; old mice): tendency towards a lower blood glucose concentration

CN(C)CCc1c[nH]c2cccc(OP(=O)(O)O)c12 [psilocybin]
% Hepatic macrovescicular steatosis (Western Diet fed rats [5]): 5%
AUC ([6]; 1 mg IV psilocybin): 240+−55
Cmax ([6]; 1 mg IV psilocybin): 12.9+−5.6 ng/ml
AUC ([6]; oral psilocybin 10-20 mg): 1963+−659
Cmax ([6]; oral psilocybin 10-20 mg): 8.2+−2.8 ng/ml
Tmax ([6]; oral psilocybin 10-20 mg): 105+−37 min
Psychedelic behavioral effects (Western Diet fed rats [7]): no evidence of psychedelic behavioral effects
Psychomotor performance, working memory, episodic memory, associative learning, visual perception [8]: dose-dependent negative effects
New cells (Ki67 positive) in SVZ, n [9]: 3404±199
